Assay results: PMC7247425, “MRP1-Collateral Sensitizers as a Novel Therapeutic Approach in Resistant Cancer Therapy: An In Vitro and In Vivo Study in Lung Resistant Tumor” (International Journal of Molecular Sciences, 2020)

Key:
[1] = system: MDCK-MRP1 cells; assay: Antiproliferative MTT assay in MDCK-wt and MDCK-MRP1 cells, selectivity ratio; assay type: cell-based, canine; details: EC50 of MDCK cells/EC50 of MDCK-MRP1 cells
Method: Within the search for novel CS agents acting on MRP1 proteins, the compounds selected among the different series of sigma-2 ligands were investigated for their activity at MRP1, paralleled with their cytotoxicity in the parental Madin–Darby canine kidney (MDCK-wt) cells and in the MDR-derived cells (MDCK-MRP1) for the determination of their SR (EC50 parental cells/EC50 MDR cells). The activity at the MRP1 pump was determined measuring the transport inhibition of the pro-fluorescent probe Calcein-AM, an MRP1 substrate, in the MRP1-overexpressing cell line (MDCK-MRP1) by the in vitro biological assay usually performed to study an MRP1 interaction. […] The SR was measured as the EC50 of the MDCK cells/EC50 of the MDCK-MRP1 cells.
(§1) The determination of cell growth was performed using an MTT assay at 24 or 72 h. On day 1, 10,000 cells/well were seeded into 96-well plates in a volume of 100 μL. […] In all the experiments, the various drug solvents (ethanol, DMSO) were added in each control to evaluate a possible solvent cytotoxicity. After the established incubation time with drugs, 10 μL MTT (0.5 mg/mL) was added to each well, and after 3 h incubation at 37°C, the supernatant was removed. The formazan crystals were solubilized using 100 μL of DMSO and the absorbance values at 570 and 630 nm were determined on the microplate reader Victor 3 from PerkinElmer Life Sciences. The absorbance of the untreated cells was considered equal to 100% cell viability; the viability of cells measured in each experimental condition was expressed as a percentage of viable cells in the considered condition vs. the viability of the untreated cells.

[2] = system: A549/DX cells; assay: Cytotoxicity in A549/DX and parental A549 cells, selectivity ratio; assay type: cell-based, human; details: cytotoxicity in parental A549 vs resistant A549/DX cells, 24 h
Excerpt: Therefore, A549/DX cells were selected as a model to investigate the CS properties of our compounds. Firstly, in order to confirm the data observed on the “pure” model MDCK-MRP1, we tested, in the same experimental conditions, the SR of F397, F400, and F421 by measuring their cytotoxicity in the resistant A549/DX cells and their parental counterpart A549, obtaining an SR ≥ 2 for all (SR = 2.5 for derivative F397, SR = 2.1 for F400, and SR = 2 for F421).
Since the doubling time of A549 cells is 22 h and the doubling time of A549/DX cells is 61 h (data not shown), in this first experimental set we used a 24 h time, i.e., the most suitable for A549 cells’ cytotoxicity as performed in the “pure” MRP1 model. Indeed, the accurate detection of cell viability in A549 cells was critical in calculating the SR in a reliable manner. The following experiments, all performed in A549/DX cells, were performed after 72 h, i.e., the best timing to detect a cytotoxic effect on the slowly growing resistant population.
The determination of cell growth was performed using an MTT assay at 24 or 72 h. On day 1, 10,000 cells/well were seeded into 96-well plates in a volume of 100 μL. On day 2, the drugs concentrations (0.1, 1, 10, 25 μM) were added. In all the experiments, the various drug solvents (ethanol, DMSO) were added in each control to evaluate a possible solvent cytotoxicity. After the established incubation time with drugs, 10 μL MTT (0.5 mg/mL) was added to each well, and after 3 h incubation at 37°C, the supernatant was removed. The formazan crystals were solubilized using 100 μL of DMSO and the absorbance values at 570 and 630 nm were determined on the microplate reader Victor 3 from PerkinElmer Life Sciences. The absorbance of the untreated cells was considered equal to 100% cell viability; the viability of cells measured in each experimental condition was expressed as a percentage of viable cells in the considered condition vs. the viability of the untreated cells.

[3] = system: A549/DX cells; assay: Cell viability (MTT) of A549/DX cells at 72 h, alone and in co-administration; assay type: cell-based, human; details: for Cell viability / cytotoxic effect, compound alone: 10 μM; for Cell viability in co-administration with MRP1 inhibitor MK571: compound 10 μM + MK571 25 μM; for Cytotoxic effect in co-administration with cis-Pt: compound 10 μM + cis-Pt 25 μM
Method: Indeed, the accurate detection of cell viability in A549 cells was critical in calculating the SR in a reliable manner.
First, we wondered if there was a correlation between the inhibition of the MRP1 protein and the CS properties of the compounds.
as §1

[4] = system: A549/DX; assay: Mitochondrial ROS production in A549/DX (MitoSOX Red); assay type: cell-based, human; details: 24 h; for Mitochondrial ROS production with cis-Pt: 10 μM + cis-Pt 25 μM; for Mitochondrial ROS production, compound alone / Mitochondrial ROS production with Mitotempol: 10 μM; for Mitochondrial ROS production with Mitotempol: Mitotempol 10 mM
Method: An increase in ROS of mitochondrial origin is particularly effective in killing multidrug-resistant cells. To investigate whether the ROS were of mithocondrial origin, the same experiment was set up evaluating ROS production at 24 h with Mitotempol, the scavenger of mithocondrial ROS.
Here, 1 × 10^6 cells were re-suspended in a final volume of 0.5 mL PBS and incubated for 30 min at 37 °C with 5 μM of the fluorescent probe MitoSOX Red (Invitrogen Life Technology, Milano, Italy) in the dark. Cells were then centrifuged at 13,000× g at 37 °C and re-suspended in 0.5 mL PBS. The fluorescence of each sample, considered as the index of ROS levels, was read at 510 (λ excitation) and 580 nm (λ emission) using a Synergy HT Multi-Mode Microplate Reader (Bio-Tek Instruments). The results were expressed as nmol mitochondrial ROS/mg cell proteins. A preliminary titration curve was set up by incubating the cells for 1 h with the cells treated with serial dilutions (10–0.01 nM) of the pro-oxidant agent menadione.

[5] = biological target: sigma-2 receptors; details: cited from earlier work; for Ki: read-out: Ki towards sigma-2 receptors
[6] = biological target: MRP1 (Homo sapiens, UniProt P33527); assay: Calcein-AM transport inhibition in MDCK-MRP1 cells (MRP1 activity)
MRP1, sequence (P33527 whole entry): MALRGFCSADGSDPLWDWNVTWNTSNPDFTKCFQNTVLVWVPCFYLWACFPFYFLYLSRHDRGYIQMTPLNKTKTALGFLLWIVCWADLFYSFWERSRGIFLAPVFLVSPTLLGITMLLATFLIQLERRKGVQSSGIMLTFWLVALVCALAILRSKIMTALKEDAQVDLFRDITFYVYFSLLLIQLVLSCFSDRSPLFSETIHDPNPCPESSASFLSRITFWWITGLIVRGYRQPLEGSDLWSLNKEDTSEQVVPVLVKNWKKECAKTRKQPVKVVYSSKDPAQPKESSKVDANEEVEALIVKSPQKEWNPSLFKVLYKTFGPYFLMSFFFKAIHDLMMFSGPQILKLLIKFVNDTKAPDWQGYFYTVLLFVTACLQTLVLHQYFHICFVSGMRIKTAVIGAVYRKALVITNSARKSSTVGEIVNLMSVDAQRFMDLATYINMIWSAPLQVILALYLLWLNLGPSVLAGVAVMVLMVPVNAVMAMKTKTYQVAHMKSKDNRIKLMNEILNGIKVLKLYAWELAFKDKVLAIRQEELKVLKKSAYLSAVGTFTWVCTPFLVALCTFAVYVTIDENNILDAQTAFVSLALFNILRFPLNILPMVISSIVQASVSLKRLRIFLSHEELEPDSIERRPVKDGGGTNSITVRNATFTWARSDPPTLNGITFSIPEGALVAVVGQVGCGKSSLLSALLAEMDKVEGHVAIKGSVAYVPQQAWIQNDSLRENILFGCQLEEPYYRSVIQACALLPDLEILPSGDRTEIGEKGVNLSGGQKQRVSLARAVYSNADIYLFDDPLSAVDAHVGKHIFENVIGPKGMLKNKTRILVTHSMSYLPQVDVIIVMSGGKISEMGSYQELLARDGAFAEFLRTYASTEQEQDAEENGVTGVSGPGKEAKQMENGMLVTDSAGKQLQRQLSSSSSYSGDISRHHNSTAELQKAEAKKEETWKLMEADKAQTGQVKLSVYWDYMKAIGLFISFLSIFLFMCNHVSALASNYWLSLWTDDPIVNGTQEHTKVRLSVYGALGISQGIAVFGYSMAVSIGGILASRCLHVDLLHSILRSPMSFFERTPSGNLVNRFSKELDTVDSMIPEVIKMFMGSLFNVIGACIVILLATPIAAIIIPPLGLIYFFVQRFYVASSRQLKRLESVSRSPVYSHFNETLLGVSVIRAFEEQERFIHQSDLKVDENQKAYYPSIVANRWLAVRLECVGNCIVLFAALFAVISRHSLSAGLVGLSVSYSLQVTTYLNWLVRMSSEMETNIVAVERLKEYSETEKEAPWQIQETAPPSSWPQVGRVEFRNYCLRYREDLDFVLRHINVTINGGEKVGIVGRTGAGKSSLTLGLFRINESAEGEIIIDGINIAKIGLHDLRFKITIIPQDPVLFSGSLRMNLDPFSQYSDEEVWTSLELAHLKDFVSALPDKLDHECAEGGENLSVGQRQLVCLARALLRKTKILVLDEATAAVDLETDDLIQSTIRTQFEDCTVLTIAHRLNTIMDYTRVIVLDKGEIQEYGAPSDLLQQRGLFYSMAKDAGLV
Method: Each cell line (30,000 cells per well) was seeded into a black CulturePlate 96/well plate with a 100 μL medium and allowed to become confluent overnight. […] In these experimental conditions, the Calcein cell accumulation in the absence and in the presence of the tested compounds was evaluated and the fluorescence basal level was estimated with the untreated cells. In treated wells, the increase in fluorescence with respect to the basal level was measured. EC50 values were determined by fitting the fluorescence increase percentage vs. log(dose).

Row | SMILES | SR (selectivity ratio) [1] | SR (selectivity ratio) [2] | Cell viability / cytotoxic effect, compound alone [3] | Cell viability in co-administration with MRP1 inhibitor MK571 [3] | Cytotoxic effect in co-administration with cis-Pt [3] | Mitochondrial ROS production with cis-Pt [4] | Mitochondrial ROS production, compound alone [4] | Mitochondrial ROS production with Mitotempol [4] | Ki [5] | EC50 [6] | sigma-2 receptor affinity [5]
1 | COc1cc2c(cc1OC)CN(CCCCc1cn(-c3ccc(F)cc3)c3ccccc13)CC2 [F397, 6,7-dimethoxy-2-{4-[1-(4-fluorophenyl)-1H-indol-3-yl]butyl}-1,2,3,4-tetrahydroisoquinoline] | 3.41 | 2.5 | cytotoxic effect on their own | reverted by the MRP1 inhibitor MK571 | drastically increases upon co-administration with cis-Pt | enforced by the concurrent administration of cis-Pt | increased the intramithocondrial ROS | reversed by Mitotempol | 5.34 nM | 16.7 ± 3.2 µM | 
2 | COc1ccc(CNCCCCc2cn(-c3ccc(F)cc3)c3ccccc23)cc1OC [F421, N-{4-[1-(4-fluorophenyl)-1H-indol-3-yl]butyl}-3,4-dimethoxybenzylamine] | 2.47 | 2 | cytotoxic effect on their own | reverted by the MRP1 inhibitor MK571 | drastically increases upon co-administration with cis-Pt | enforced by the concurrent administration of cis-Pt | increased the intramithocondrial ROS | reversed by Mitotempol | 169 nM | 28 ± 4.8 µM | 
3 | COc1cc2c(cc1OC)CN(C(=O)CCC1CCCc3c(OC)cccc31)CC2 (stereo not drawn) [F400, 6,7-dimethoxy-2-[3-(5-methoxy-1,2,3,4-tetrahydronaphthalen-1-yl)propionyl]-1,2,3,4 tetrahydroisoquinoline] | 5.91 | 2.1 | cytotoxic effect on their own | reverted by the MRP1 inhibitor MK571 | drastically increases upon co-administration with cis-Pt | enforced by the concurrent administration of cis-Pt | increased the intramithocondrial ROS | reversed by Mitotempol |  | 17.6 ± 3.8 µM | devoid of sigma-2 receptor affinity
